The values that follow come from patent US12637472B2, “Benzimidazole heteroatom-containing spiro compound and medicinal use thereof” (Changzhi University, priority 2023, dated 2026).

Where two headings read alike, the source gives them in different places. Some results are limits rather than exact numbers.

Format in all cases: cell-based
The subject of experiment [1] is human gastric adenocarcinoma cells AGS. The experiment in a line: MTT in vitro cell proliferation inhibition experiment, AGS. As to conditions: MTT method, 48 h contact between compound and cell, read-out: Antiproliferative activity (IC50, μM) AGS. On the procedure:
(§1) Human liver tumor cells HepG2, human colon cancer cells HCT116, and human gastric adenocarcinoma cells AGS were purchased from the Institute of Basic Medical Sciences, Chinese Academy of Medical Sciences. The cells each were preserved and passaged in the laboratory of the present disclosure according to respective cultivation data. Each cell line was routinely inoculated in a 50 mL cell culture flask, and cultivated with a 10% fetal bovine serum-containing DMEM/IRP-1640 medium at 37° C., 5% CO2, and 100% humidity, where the medium was changed daily. When growing to a confluency of 80% to 90%, cells were digested with a mixture of trypsin and EDTA and passaged according to 1:3.
(§2) An in vitro cell activity and proliferation inhibition experiment was conducted by an MTT method to investigate an impact of a target compound on a survival activity of each cell. Cells at a logarithmic growth phase were inoculated at 5×10^3 cells (100 μL)/well in a 96-well culture plate and cultivated for 24 h, and then compound solutions with different concentrations prepared in advance were added (100 μL) to the plate. At least 3 replicate wells were set for each concentration. A solvent control group without a compound and a blank control group without a cell were set. Edge wells each were filled with 200 μL of sterilized water. […] A liquid in each well was completely removed carefully, 150 μL of DMSO was added to each well, the plate was gently shaken on a microshaker for 10 min to make a purple crystal fully dissolved, and then an absorbance value was determined at 570 nm by a microplate reader. With a cell viability of the solvent control group without a compound as 100%, a cell survival rate was calculated as follows: a cell survival rate=(an absorbance value of a compound group−an absorbance value of the blank control group)/(an absorbance value of the control group−an absorbance value of the blank control group)×100%. A half-maximal inhibitory concentration (IC50) of a compound for a cell was calculated by the Graphpad Prism 5 software.

The subject of experiment [2] is human colon cancer cells HCT116. The experiment in a line: MTT in vitro cell proliferation inhibition experiment, HCT116. To be noted: 48 h contact between compound and cell, read-out: Antiproliferative activity (IC50, μM) HCT116. On the procedure:
as §1, §2

In experiment [3] the test system is Human liver tumor cells HepG2. The experiment in a line: MTT in vitro cell proliferation inhibition experiment, HepG2. To be noted: MTT method, 48 h contact between compound and cell, read-out: Antiproliferative activity (IC50, μM) HepG2. As to the method:
as §1, §2

The mark [4] stands for this setting: Homo sapiens, HCT-116, MTT method.

As usually defined, the IC50 is the concentration that inhibits the measured activity by half. For `N.N.[Cl][Pt][Cl]` [Cisplatin, reference compound], the IC50 in experiment [1] came to 46 µM; in experiment [2] (MTT method), 39.1 µM; in experiment [3] it was 43.2 µM.
With `O=C(c1nc2ccccc2[nH]1)C1C(C2CCCCC2)C2CCCN2C12C(=O)c1ccccc1C2=O` (stereo not drawn) [Compound 1, 2-(1H-benzimidazol-2-carbonyl)-1-cyclohexyl-1,2,5,6,7,7a-hexahydrospiroinden-2,3-pyrrolizine-1,3-dione], the IC50 in experiment [1] (Homo sapiens) was 40.8 µM; in experiment [2] (setting [4]), > 100 µM; in experiment [3] (Homo sapiens) it was > 100 µM.
Regarding `O=C(c1nc2ccccc2[nH]1)C1C(c2ccc(Cl)c(F)c2)C2CCCN2C12C(=O)c1ccccc1C2=O` (stereo not drawn) [Compound 2, 2-(1H-benzimidazol-2-carbonyl)-1-(3-fluoro-4-chlorophenyl)-1,2,5,6,7,7a-hexahydrospiro[inden-2,3-pyrrolizine]-1,3-dione], the IC50 in experiment [1] (Homo sapiens), in experiment [2] (setting [4]) and in experiment [3] (Homo sapiens) was > 100 µM each time.
`O=C(c1nc2ccccc2[nH]1)C1C(c2ccc(Cl)cc2)C2CCCN2C12C(=O)c1ccccc1C2=O` (stereo not drawn) [Compound 3, 2-(1H-benzimidazol-2-carbonyl)-1-4-chlorophenyl-1,2,5,6,7,7a-hexahydrospiroinden-2,3-pyrrolizine-1,3-dione]: the 50% inhibitory concentration (IC50) was 30 µM in experiment [1] (Homo sapiens), 26.2 µM in experiment [2] (setting [4]) and > 100 µM in experiment [3] (Homo sapiens).
The matching figures for `Cc1ccc(C2C3CCCN3C3(C(=O)c4ccccc4C3=O)C2C(=O)c2nc3ccccc3[nH]2)cc1` (stereo not drawn) [Compound 4, 2-(1H-benzimidazol-2-carbonyl)-1-p-tolyl-1,2,5,6,7,7a-hexahydrospiroinden-2,3-pyrrolizine-1,3-dione]: 17.1 µM, 54.2 µM and > 100 µM.
In the case of `CCOc1ccc(C2C3CCCN3C3(C(=O)c4ccccc4C3=O)C2C(=O)c2nc3ccccc3[nH]2)cc1OCC` (stereo not drawn) [Compound 5, 2-(1H-benzimidazol-2-carbonyl)-3,4-diethoxyphenyl-1,2,5,6,7,7a-hexahydrospiroinden-2,3-pyrrolizine-1,3-dione], the figures for the IC50 in experiment [1] (Homo sapiens), in experiment [2] (setting [4]) and in experiment [3] (Homo sapiens) were 36.9 µM, 17.4 µM and 80.7 µM, respectively.
The matching figures for `O=C(c1nc2ccccc2[nH]1)C1C(c2cccc(Br)c2)C2CCCN2C12C(=O)c1ccccc1C2=O` (stereo not drawn) [Compound 6, 2-(1H-benzimidazol-2-carbonyl)-1-3-bromophenyl-1,2,5,6,7,7a-hexahydrospiroinden-2,3-pyrrolizine-1,3-dione]: 4 µM, 6.64 µM and 11.7 µM.
The matching figures for `CCOc1ccc(C2C3CCCN3C3(C(=O)c4ccccc4C3=O)C2C(=O)c2nc3ccccc3[nH]2)cc1` (stereo not drawn) [Compound 7, 2-(1H-benzimidazol-2-carbonyl)-1-(4-ethoxyphenyl)-1,2,5,6,7,7a-hexahydrospiroinden-2,3-pyrrolizine-1,3-dione]: 7.73 µM, 7.99 µM and 20.5 µM.
The matching figures for `O=C(c1nc2ccccc2[nH]1)C1C(c2ccc(Br)cc2)C2CCCN2C12C(=O)c1ccccc1C2=O` (stereo not drawn) [Compound 8, 2-(1H-benzimidazol-2-carbonyl)-1-4-bromophenyl-1,2,5,6,7,7a-hexahydrospiroinden-2,3-pyrrolizine-1,3-dione]: 25.7 µM, 17.4 µM and > 100 µM.
Turning to `CC(C)CC1NC2(C(=O)c3ccccc3C2=O)C(C(=O)c2nc3ccccc3[nH]2)C1C1CCCCC1` (stereo not drawn) [Compound 9, 3-(1H-benzimidazol-2-carbonyl)-4-cyclohexyl-5-isobutylspiro[inden-2,2′-pyrrolidine]-1,3-dione], the IC50 is 69 µM in experiment [1] (Homo sapiens), 20.3 µM in experiment [2] (setting [4]) and > 100 µM in experiment [3] (Homo sapiens).
For `CC(C)CC1NC2(C(=O)c3ccccc3C2=O)C(C(=O)c2nc3ccccc3[nH]2)C1c1ccc(Cl)c(F)c1` (stereo not drawn) [Compound 10, 3-(1H-benzimidazol-2-carbonyl)-4-(3-fluoro-4-chlorophenyl)-5-isobutylspiro[inden-2,2′-pyrrolidine]-1,3-dione], the IC50 in experiment [1] (Homo sapiens) stood at 46.7 µM; in experiment [2] (setting [4]) it was 15.7 µM; in experiment [3] (Homo sapiens), 87.7 µM.
The matching figures for `CC(C)CC1NC2(C(=O)c3ccccc3C2=O)C(C(=O)c2nc3ccccc3[nH]2)C1c1ccc(Cl)cc1` (stereo not drawn) [Compound 11, 3-(1H-benzimidazol-2-carbonyl)-4-(4-chlorophenyl)-5-isobutylspiro[inden-2,2′-pyrrolidine]-1,3-dione]: > 100 µM, 30.3 µM and > 100 µM.
The matching figures for `Cc1ccc(C2C(CC(C)C)NC3(C(=O)c4ccccc4C3=O)C2C(=O)c2nc3ccccc3[nH]2)cc1` (stereo not drawn) [Compound 12, 3-(1H-benzimidazol-2-carbonyl)-5-isobutyl-4-p-tolylspiro[inden-2,2′-pyrrolidine]-1,3-dione]: 42.7 µM, 14.1 µM and > 100 µM.
The matching figures for `CCOc1ccc(C2C(CC(C)C)NC3(C(=O)c4ccccc4C3=O)C2C(=O)c2nc3ccccc3[nH]2)cc1OCC` (stereo not drawn) [Compound 13]: > 100 µM, > 100 µM and > 100 µM.
`CC(C)CC1NC2(C(=O)c3ccccc3C2=O)C(C(=O)c2nc3ccccc3[nH]2)C1c1cccc(Br)c1` (stereo not drawn) [Compound 14, 3-(1H-benzimidazol-2-carbonyl)-4-(3-bromophenyl)-5-isobutylspiro[inden-2,2′-pyrrolidine]-1,3-dione]: the IC50 is 7.92 µM in experiment [1] (Homo sapiens), 5.88 µM in experiment [2] (setting [4]) and 11.7 µM in experiment [3] (Homo sapiens).
With `CCOc1ccc(C2C(CC(C)C)NC3(C(=O)c4ccccc4C3=O)C2C(=O)c2nc3ccccc3[nH]2)cc1` (stereo not drawn) [Compound 15, 3-(1H-benzimidazol-2-carbonyl)-4-(4-ethoxyphenyl)-5-isobutylspiro[inden-2,2′-pyrrolidine]-1,3-dione], the 50% inhibitory concentration (IC50) in experiment [1] (Homo sapiens) is 85.7 µM; in experiment [2] (setting [4]) it was 28.8 µM; in experiment [3] (Homo sapiens), > 100 µM.
Regarding `CC(C)CC1NC2(C(=O)c3ccccc3C2=O)C(C(=O)c2nc3ccccc3[nH]2)C1c1ccc(Br)cc1` (stereo not drawn) [Compound 16, 3-(1H-benzimidazol-2-carbonyl)-4-(4-bromophenyl)-5-isobutylspiro[inden-2,2′-pyrrolidine]-1,3-dione], the values for the IC50 in experiment [1] (Homo sapiens), in experiment [2] (setting [4]) and in experiment [3] (Homo sapiens) were 20.9 µM, 10.8 µM and 49.7 µM, respectively.
The matching figures for `CCC(C)C1NC2(C(=O)c3ccccc3C2=O)C(C(=O)c2nc3ccccc3[nH]2)C1C1CCCCC1` (stereo not drawn) [Compound 17, 3-(1H-benzimidazol-2-carbonyl)-5-sec-butyl-4-cyclohexylspiro[inden-2,2′-pyrrolidine]-1,3-dione]: 14.7 µM, 11.1 µM and 16.2 µM.
In the case of `CCC(C)C1NC2(C(=O)c3ccccc3C2=O)C(C(=O)c2nc3ccccc3[nH]2)C1c1ccc(Cl)c(F)c1` (stereo not drawn) [Compound 18, 3-(1H-benzimidazol-2-carbonyl)-5-sec-butyl-4-(3-fluoro-4-chlorophenyl)spiro[inden-2,2′-pyrrolidine]-1,3-dione], the IC50 in experiment [1] (Homo sapiens), in experiment [2] (setting [4]) and in experiment [3] (Homo sapiens) was > 100 µM in each case.
On to `CCC(C)C1NC2(C(=O)c3ccccc3C2=O)C(C(=O)c2nc3ccccc3[nH]2)C1c1ccc(Cl)cc1` (stereo not drawn) [Compound 19, 3-(1H-benzimidazol-2-carbonyl)-5-sec-butyl-4-(4-chlorophenyl)spiro[inden-2,2′-pyrrolidine]-1,3-dione], for which the values for the IC50 in experiment [1] (Homo sapiens), in experiment [2] (setting [4]) and in experiment [3] (Homo sapiens) were 87.5 µM, 42.1 µM and > 100 µM, respectively.
As to `CCC(C)C1NC2(C(=O)c3ccccc3C2=O)C(C(=O)c2nc3ccccc3[nH]2)C1c1ccc(C)cc1` (stereo not drawn) [Compound 20, 3-(1H-benzimidazol-2-carbonyl)-5-sec-butyl-4-p-tolylspiro[inden-2,2′-pyrrolidine]-1,3-dione], the IC50 in experiment [1] (Homo sapiens) is 94 µM; in experiment [2] (setting [4]), 51.3 µM; in experiment [3] (Homo sapiens) it was > 100 µM.
With `CCOc1ccc(C2C(C(C)CC)NC3(C(=O)c4ccccc4C3=O)C2C(=O)c2nc3ccccc3[nH]2)cc1OCC` (stereo not drawn) [Compound 21], the half-maximal inhibitory concentration (IC50) in experiment [1] (Homo sapiens) is 33.8 µM; in experiment [2] (setting [4]) it was 35.5 µM; in experiment [3] (Homo sapiens), 41.3 µM.
On to `CCC(C)C1NC2(C(=O)c3ccccc3C2=O)C(C(=O)c2nc3ccccc3[nH]2)C1c1cccc(Br)c1` (stereo not drawn) [Compound 22, 3-benzimidazol-2-carbonyl-4-(3-bromophenyl)-5-sec-butylspiro[inden-2,2′-pyrrolidine]-1,3-dione], for which the figures for the half-maximal inhibitory concentration (IC50) in experiment [1] (Homo sapiens), in experiment [2] (setting [4]) and in experiment [3] (Homo sapiens) were 4.78 µM, 5.67 µM and 3.45 µM, respectively.
